# According to publication PMC7539012, “Hyperphosphorylated tau aggregation and cytotoxicity modulators screen identified prescription drugs linked to Alzheimer's disease and cognitive functions” (Scientific Reports, 2020):
# Where a name gives a salt, the structure may show the parent alone.
# System: T1, 1N4R p-tau
# T1 construct: made in house; host or cells: E. coli (PIMAX system)
# Test: p-tau aggregation modulator screen of 1280-compound library (ThS fluorescence net change over 16 h);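 for ThS net change: 30 µM compound with 6 µM p-tau over 16 h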
# Type: biochemical
# Parameters: key to PTAI>3SD: *: PTAI>3SD
# Details: not given
row,Structure (SMILES),ThS net change
1,O=C([O-])[C@H]1/C(=C/CO)O[C@@H]2CC(=O)N21.[K+] [Clavulanate potassium salt],431
2,CC(=O)N(O)CCCCCNC(=O)CCC(=O)N(O)CCCCCNC(=O)CCC(=O)N(O)CCCCCN [Deferoxamine mesylate],439
3,NCCCC(O)(P(=O)(O)O)P(=O)(O)O [Alendronate sodium],381
4,CN(C)CCCN1c2ccccc2Sc2ccc(C(F)(F)F)cc21 [Triflupromazine hydrochloride],280
5,NC[C@@H]1O[C@H](O[C@H]2[C@@H](O)[C@H](O[C@@H]3[C@@H](O)[C@H](N)C[C@H](N)[C@H]3O[C@H]3O[C@H](CO)[C@@H](O)[C@H](O)[C@H]3N)O[C@@H]2CO)[C@H](N)[C@@H](O)[C@@H]1O [Paromomycin sulfate],472
6,CC(C)NC[C@@H](O)COc1cccc2ccccc12.Cl [(R)-Propranolol hydrochloride],416
7,Clc1ccc(CCC(Cn2ccnc2)Sc2c(Cl)cccc2Cl)cc1 (stereo not drawn) [Butoconazole nitrate],237
8,CN1[C@@H]2CC[C@H]1C[C@@H](OC(=O)[C@H](CO)c1ccccc1)C2 [Hyoscyamine (L)],434

# Same assay, conditions: 1280-compound library screen; ThS fluorescence net change over 16 h
row,Structure (SMILES),ThS net change
1,CN1CCC(OC(c2ccccc2)c2ccccc2)CC1 [Diphenylpyraline hydrochloride],380
2,Oc1ccc(OCc2ccccc2)cc1 [Monobenzone],382
3,CC(C)[N+](C)(CCC(C(N)=O)(c1ccccc1)c1ccccc1)C(C)C [Isopropamide iodide],395
4,CN(C)CCOc1ccc(/C(=C(/CCCl)c2ccccc2)c2ccccc2)cc1 [Toremifene],406
5,CCn1cc(C(=O)O)c(=O)c2cnc(N3CCCC3)nc21 [Piromidic acid],394
6,CC[N+](C)(C)c1cccc(O)c1 [Edrophonium chloride],389
7,Cc1cc(O)c(C(=O)N[C@@H](C(=O)N[C@@H]2C(=O)N3C(C(=O)O)=C(CSc4nnnn4C)CS[C@H]23)c2ccc(O)cc2)cn1 [Cefpiramide],407
8,Cc1ccc(NC(=O)c2ccc(CN3CCN(C)CC3)cc2)cc1Nc1nccc(-c2cccnc2)n1 [Imatinib],409
9,CC(C)NNC(=O)c1ccncc1.O=P(O)(O)O [Iproniazide phosphate],401
10,CC(C)NC[C@H](O)c1ccc(O)c(O)c1.Cl [(-)-Isoproterenol hydrochloride],400
11,NC[C@H]1O[C@H](OC2[C@@H](N)C[C@@H](N)[C@H](O)[C@H]2O[C@@H]2O[C@H](CO)[C@@H](O)[C@H]2O)[C@H](N)[C@@H](O)[C@@H]1O.O=S(=O)(O)O (stereo partly drawn) [Ribostamycin sulfate salt],379
12,CC(=O)OCC(=O)[C@@]1(O)CC[C@H]2[C@@H]3CCC4=CC(=O)C=C[C@]4(C)[C@@]3(F)[C@@H](O)C[C@@]21C [Isoflupredone acetate],388

# Same assay, conditions: 1280-compound library screen; […]
row,Structure (SMILES),ThS net change
1,"CC(O)(P(=O)([O-])O)P(=O)([O-])O.[Na+].[Na+] [Etidronic acid, disodium salt]",392
2,CN[C@@H]1C[C@@H](c2ccc(Cl)c(Cl)c2)c2ccccc21 [Indatraline hydrochloride],388

# Same assay, conditions: flag: p-tau aggregation inhibitor, ThS net change more than 3 SD from mean
row,Structure (SMILES),PTAI>3SD
1,NS(=O)(=O)c1cc2c(cc1Cl)NC(CC1CCCC1)NS2(=O)=O (stereo not drawn) [Cyclopenthiazide],*

# Same assay, conditions: library screen, ThS fluorescence net change over 16 h with p-tau
row,Structure (SMILES),ThS net change
1,CCOc1ccc2ccccc2c1C(=O)N[C@@H]1C(=O)N2[C@@H]1SC(C)(C)[C@@H]2C(=O)O [Nafcillin sodium salt monohydrate],317
2,Cc1cc(-c2ccccc2)nnc1NCCN1CCOCC1 [Minaprine dihydrochloride],294
3,CN(C)[C@@H]1C(O)=C(C(N)=O)C(=O)[C@@]2(O)C(O)=C3C(=O)c4c(O)ccc(Cl)c4[C@@](C)(O)[C@H]3C[C@@H]12 [Chlortetracycline hydrochloride],223
4,NS(=O)(=O)c1cc2c(cc1Cl)NC(CC1CCCC1)NS2(=O)=O (stereo not drawn) [Cyclopenthiazide],0
5,COc1cc(C(=O)OCCCN2CCCN(CCCOC(=O)c3cc(OC)c(OC)c(OC)c3)CC2)cc(OC)c1OC.Cl.Cl [Dilazep dihydrochloride],286
6,O=c1[nH]c2ccccc2n1C1CCN(CCCC(c2ccc(F)cc2)c2ccc(F)cc2)CC1 [Pimozide],274
7,O=c1n(CCCN2CCN(c3cccc(Cl)c3)CC2)nc2ccccn12 [Trazodone hydrochloride],316

# Same assay, conditions: p-tau aggregation modulator screen of 1280-compound library; ThS fluorescence net change
row,Structure (SMILES),ThS net change
1,O=C(O)c1cccnc1Nc1cccc(C(F)(F)F)c1 [Niflumic acid],340
2,CC[N+](CC)(CC)CCOc1cccc(OCC[N+](CC)(CC)CC)c1OCC[N+](CC)(CC)CC [Gallamine triethiodide],363
3,CCN1CCN(C(=O)N[C@@H](C(=O)N[C@@H]2C(=O)N3[C@@H]2SC(C)(C)[C@@H]3C(=O)O)c2ccccc2)C(=O)C1=O [Piperacillin sodium salt],354
4,CN(C)CCC[C@@]1(c2ccc(F)cc2)OCc2cc(C#N)ccc21 [Escitalopram oxalate],374
5,COc1ccc(CC2c3cc(OC)c(OC)cc3CC[N+]2(C)CCC(=O)OCCCCCOC(=O)CC[N+]2(C)CCc3cc(OC)c(OC)cc3C2Cc2ccc(OC)c(OC)c2)cc1OC (stereo not drawn) [Atracurium besylate],370
6,CO[C@@]1(NC(=O)Cc2cccs2)C(=O)N2C(C(=O)O)=C(COC(N)=O)CS[C@@H]21 [Cefoxitin sodium salt],354
7,CC(NCCC(c1ccccc1)c1ccccc1)c1ccccc1 (stereo not drawn) [Fendiline hydrochloride],335
8,NC(=O)c1cnccn1 [Pyrazinamide],370
9,"Cc1c(O)c(=O)n(-c2ccccc2)n1C [Antipyrine, 4-hydroxy]",371
10,C1CCC(C(CC2CCCCN2)C2CCCCC2)CC1 (stereo not drawn) [Perhexiline maleate],342
11,COc1ccc2cc(CCC(C)=O)ccc2c1 [Nabumetone],357
12,Cc1ccccc1OCC(O)CO (stereo not drawn) [Mephenesin],350
13,CCN(CC)CCOC(=O)c1ccc(N)cc1 [Procaine hydrochloride],362
14,COc1ccccc1OCC(O)CO (stereo not drawn) [Guaifenesin],376
15,Cc1oncc1C(=O)Nc1ccc(C(F)(F)F)cc1 [Leflunomide],344
16,CC(C)NC[C@@H](O)c1ccc(O)c(O)c1.O=C(O)C(O)C(O)C(=O)O [(+)-Isoproterenol (+)-bitartrate salt],345
17,CC(=O)Oc1cc(C(C)C)c(OCCN(C)C)cc1C.Cl [Moxisylyte hydrochoride],358
18,CN(C)C(=O)Oc1cc(OC(=O)N(C)C)cc(C(O)CNC(C)(C)C)c1.Cl (stereo not drawn) [Bambuterol hydrochloride],336
19,CCOC(=O)C1=C(COCCN)NC(C)=C(C(=O)OC)C1c1ccccc1Cl (stereo not drawn) [Amlodipine],351
20,CC(=O)/N=c1/sc(S(N)(=O)=O)nn1C [Methazolamide],377
21,CN1CCN(C(c2ccccc2)c2ccccc2)CC1.Cl [Cyclizine hydrochloride],377
22,CC[P](CC)(CC)=[Au][S][C@@H]1O[C@H](COC(C)=O)[C@@H](OC(C)=O)[C@H](OC(C)=O)[C@H]1OC(C)=O [Auranofin],365
23,COc1ccccc1N1CCN(CCCCNC(=O)c2ccc3ccccc3c2)CC1.Cl.Cl [DO 897/99],374

# Same assay, conditions: p-tau aggregation modulator screen of 1280-compound library; […]
row,Structure (SMILES),ThS net change
1,CCn1cc(C(=O)[O-])c(=O)c2ccc(C)nc21.[Na+] [Nalidixic acid sodium salt],339
2,CN1CC2c3ccccc3Oc3ccc(Cl)cc3C2C1 (stereo not drawn) [Asenapine maleate],375
3,Clc1ccc(CSC(Cn2ccnc2)c2ccc(Cl)cc2Cl)cc1 (stereo not drawn) [Sulconazole nitrate],336
4,CCCC(C)C1(CC)C(=O)NC(=O)NC1=O (stereo not drawn) [Pentobarbital],354

# Same assay, conditions: p-tau aggregation modulator screen of the compound library, ThS fluorescence net change
row,Structure (SMILES),ThS net change
1,CN[C@H]1CC[C@@H](c2ccc(Cl)c(Cl)c2)c2ccccc21 [Sertraline],428
2,Cc1cccc(CN2CCN(C(c3ccccc3)c3ccc(Cl)cc3)CC2)c1.Cl.Cl (stereo not drawn) [Meclozine dihydrochloride],430
3,COc1ccc(C[C@@H]2c3cc(OC)c(OC)cc3CC[N@+]2(C)CCC(=O)OCCCCCOC(=O)CC[N@@+]2(C)CCc3cc(OC)c(OC)cc3[C@H]2Cc2ccc(OC)c(OC)c2)cc1OC [Cisatracurium besylate],458
4,CC(C)Cn1cnc2c(N)nc3ccccc3c21 [Imiquimod],439
5,CN[C@@H]1[C@@H](O[C@H]2O[C@H](CO)[C@@H](N)[C@H](O)[C@H]2O)OC2C[C@@H](N)[C@@H](O[C@H]3[C@H](O)[C@@H](O)[C@H](N)C[C@@H]3N)OC2[C@@H]1O (stereo partly drawn) [Apramycin],416
6,NS(=O)(=O)c1cc(C(=O)O)cc(N2CCCC2)c1Oc1ccccc1 [Piretanide],435
7,CC[C@H](C)[C@H]1O[C@]2(C=C[C@@H]1C)C[C@@H]1C[C@@H](C/C=C(\C)[C@@H](O[C@H]3C[C@H](OC)[C@@H](O[C@H]4C[C@H](OC)[C@@H](O)[C@H](C)O4)[C@H](C)O3)[C@@H](C)/C=C/C=C3\CO[C@@H]4[C@H](O)C(C)=C[C@@H](C(=O)O1)[C@]34O)O2 [Avermectin B1a],676
8,O=C1OCCN1/N=C/c1ccc([N+](=O)[O-])o1 [Furazolidone],415
9,C[C@@H]1C[C@H]2[C@@H]3CCC4=CC(=O)C=C[C@]4(C)[C@@]3(Cl)[C@@H](O)C[C@]2(C)[C@@]1(OC(=O)c1ccco1)C(=O)CCl [Mometasone furoate],484
10,C[C@H](CCC(=O)O)[C@H]1CC[C@H]2[C@@H]3[C@@H](O)C[C@@H]4C[C@H](O)CC[C@]4(C)[C@H]3CC[C@]12C [Urosiol],426
11,N[C@@H](Cc1ccc(O)c(O)c1)C(=O)O [Levodopa],444
12,Cc1cc(-n2c(=O)[nH]c(=O)n(C)c2=O)ccc1Oc1ccc(SC(F)(F)F)cc1 [Toltrazuril],511
